Experiments:
[1] = target: T1, 5-hydroxytryptamine receptor 1A (Homo sapiens, UniProt P08908); assay: Displacement of [3H]-8-OH-DPAT from human 5-HT1A receptor expressed in CHOK1 cell membranes after 30 mins by liquid scintillation spectrometry
T1 sequence (P08908 whole entry): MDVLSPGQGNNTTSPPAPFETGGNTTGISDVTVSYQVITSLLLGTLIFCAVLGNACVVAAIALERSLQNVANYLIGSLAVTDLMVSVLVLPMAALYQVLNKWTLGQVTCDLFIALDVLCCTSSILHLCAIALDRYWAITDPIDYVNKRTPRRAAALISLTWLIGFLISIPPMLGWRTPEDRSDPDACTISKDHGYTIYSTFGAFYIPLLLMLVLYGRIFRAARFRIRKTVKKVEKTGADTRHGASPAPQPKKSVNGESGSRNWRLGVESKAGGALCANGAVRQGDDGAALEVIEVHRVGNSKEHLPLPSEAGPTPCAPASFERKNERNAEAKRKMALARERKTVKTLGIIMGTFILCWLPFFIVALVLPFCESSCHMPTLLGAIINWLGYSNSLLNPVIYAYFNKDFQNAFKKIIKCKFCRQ

[2] = target: T2, 5-hydroxytryptamine receptor 7 (Homo sapiens, UniProt P34969); assay: Displacement of [3H]-5-HT from human 5-HT7 receptor expressed in CHOK1 cell membranes at 10^-5M after 30 mins by liquid scintillation spectrometry
T2 sequence (P34969 whole entry): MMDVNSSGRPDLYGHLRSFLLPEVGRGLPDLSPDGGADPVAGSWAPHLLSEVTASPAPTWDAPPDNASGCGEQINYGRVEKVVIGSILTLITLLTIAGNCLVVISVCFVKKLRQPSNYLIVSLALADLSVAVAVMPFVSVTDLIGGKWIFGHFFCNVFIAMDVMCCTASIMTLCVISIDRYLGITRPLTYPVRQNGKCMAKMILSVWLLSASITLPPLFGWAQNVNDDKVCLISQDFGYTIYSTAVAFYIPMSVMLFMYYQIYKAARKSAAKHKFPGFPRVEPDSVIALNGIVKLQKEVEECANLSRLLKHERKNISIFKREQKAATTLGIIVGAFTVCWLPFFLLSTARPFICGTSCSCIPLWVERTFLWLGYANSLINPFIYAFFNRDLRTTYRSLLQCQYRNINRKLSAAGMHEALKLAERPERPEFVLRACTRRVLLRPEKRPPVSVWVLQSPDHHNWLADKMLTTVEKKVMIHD

[3] = target: T2, 5-hydroxytryptamine receptor 7; assay: Displacement of [3H]-5-HT from human 5-HT7 receptor expressed in CHOK1 cell membranes after 30 mins by liquid scintillation spectrometry
[4] = target: T3, 5-hydroxytryptamine receptor 1A (Homo sapiens) (UniProt P08908); assay: Displacement of [3H]-8-OH-DPAT from human 5-HT1A receptor expressed in CHOK1 cell membranes at 10^-5M after 30 mins by liquid scintillation spectrometry
T3 sequence (whole entry): T1 sequence (P08908 whole entry)

[5] = Dissociation constant, pKa of the compound at pH 7.4; format: physicochemical

SMILES	Ki [1]	inhibition [2]	Ki [3]	inhibition [4]	pKa [5]
O=C(CCN1CCN(c2ccccc2)CC1)N1CCN(c2cccc(Cl)c2)CC1	1070 nM	< 50%	–	–	–
O=C(CCNCc1ccccc1)N1CCN(c2ccccc2)CC1	938 nM	< 50%	–	–	–
O=C(CCN1CCN(c2ccc(Cl)cc2)CC1)N1CCN(c2ccccc2)CC1	1680 nM	–	462 nM	–	–
CCOc1ccccc1N1CCN(CCC(=O)N2CCN(c3cccc(Cl)c3)CC2)CC1	15.2 nM	–	119 nM	–	–
O=C(CCN1CCN(Cc2ccccc2)CC1)N1CCN(c2ncccn2)CC1	–	–	23.5 nM	< 50%	–
COc1ccc(N2CCN(C(=O)CCN3CCN(Cc4ccccc4)CC3)CC2)cc1	–	< 50%	–	< 50%	–
O=C(CCN1CCN(c2ccccc2)CC1)N1CCN(c2ccccc2)CC1	272 nM	–	26.2 nM	–	8.11
COc1ccccc1N1CCN(C(=O)CCN2CCN(Cc3ccccc3)CC2)CC1	–	–	24.2 nM	< 50%	–
O=C(CCNCc1ccccc1)NCc1ccccc1	3750 nM	–	176 nM	–	–
O=C(CCCCN1CCN(c2ccccc2)CC1)N1CCN(c2ccccc2)CC1	350 nM	–	197 nM	–	–
O=C(CCN1CCN(c2cccc(Cl)c2)CC1)N1CCN(c2cccc(Cl)c2)CC1	142 nM	–	2760 nM	–	–
CCOc1ccccc1N1CCN(CCC(=O)N2CCN(c3ccccc3)CC2)CC1	81.8 nM	–	80.3 nM	–	–
O=C(CCN1CCN(c2cccc(Cl)c2)CC1)N1CCN(c2ccccc2)CC1	33.5 nM	–	32.7 nM	–	–
O=C(CCN1CCN(Cc2ccccc2)CC1)N1CCN(c2ccccn2)CC1	–	–	29.5 nM	< 50%	–
O=C(CCN1CCN(c2ccc(Cl)cc2)CC1)N1CCN(c2cccc(Cl)c2)CC1	302 nM	–	2370 nM	–	–
O=C(CCN1CCN(Cc2ccccc2)CC1)N1CCN(c2cccc(Cl)c2)CC1	101 nM	–	54.7 nM	–	–
O=C(CCN1CCN(Cc2ccccc2)CC1)N1CCN(c2ccccc2Cl)CC1	–	–	50.2 nM	< 50%	–
O=C(CCN1CCN(Cc2ccccc2)CC1)N1CCN(c2ccc(Cl)cc2)CC1	–	–	36.6 nM	< 50%	–
O=C(CCN1CCN(Cc2ccccc2)CC1)N1CCN(c2ccccc2)CC1	–	–	52 nM	< 50%	8.55
O=C(CCN1CCN(Cc2ccccc2)CC1)NCc1ccccc1	0.34 nM	–	4.34 nM	–	–
